Measurements from the supplement of paper PMC10307832.

Assays:
Experiment in all cases: relative viability (nuclei count vs DMSO), 5 days (fraction); higher = more cells survive
QS11 + AZD7762 = compound: C1CC2=C(C1)C=C(C=C2)OC3=NC(=C4C(=N3)N(C=N4)CC5=CC=C(C=C5)C6=CC=CC=C6)N[C@@H](CC7=CC=CC=C7)CO [QS11] + NC(=O)Nc1cc(-c2cccc(F)c2)sc1C(=O)N[C@H]1CCCNC1 [AZD7762] (partner 0.2 µM)
Outline: (§1)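 Lung cancer cell lines were pin-tool dosed in 1536-well plates on the day after seeding, with either a lone drug or a fixed anchor-drug dose plus five library-drug doses (not always all listed) in √10 steps. Nuclei were counted on 4× images after 5 days. Relative viability is the ratio of treated-well to vehicle-well nuclei counts, with each value a median of duplicate plates.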

QS11 + Vorinostat = compound: C1CC2=C(C1)C=C(C=C2)OC3=NC(=C4C(=N3)N(C=N4)CC5=CC=C(C=C5)C6=CC=CC=C6)N[C@@H](CC7=CC=CC=C7)CO [QS11] + O=C(CCCCCCC(=O)Nc1ccccc1)NO [Vorinostat] (partner 1 µM)
Outline: as §1

QS11 + Olaparib = compound: C1CC2=C(C1)C=C(C=C2)OC3=NC(=C4C(=N3)N(C=N4)CC5=CC=C(C=C5)C6=CC=CC=C6)N[C@@H](CC7=CC=CC=C7)CO [QS11] + O=C(c1cc(Cc2n[nH]c(=O)c3ccccc23)ccc1F)N1CCN(C(=O)C2CC2)CC1 [Olaparib] (partner 8 µM)
Outline: as §1

AZ628 + Vorinostat = compound: CC1=C(C=C(C=C1)NC(=O)C2=CC(=CC=C2)C(C)(C)C#N)NC3=CC4=C(C=C3)N=CN(C4=O)C [AZ628] + O=C(CCCCCCC(=O)Nc1ccccc1)NO [Vorinostat] (partner 1 µM)
Outline: as §1

Row | Cell Line | relative viability (QS11 + AZD7762; first compound 0.08 µM) | relative viability (QS11 + AZD7762; first compound 0.253 µM) | relative viability (QS11 + AZD7762; first compound 0.8 µM) | relative viability (QS11 + AZD7762; first compound 2.53 µM) | relative viability (QS11 + AZD7762; first compound 8 µM) | relative viability (QS11 + Vorinostat; first compound 0.08 µM) | relative viability (QS11 + Vorinostat; first compound 0.253 µM) | relative viability (QS11 + Vorinostat; first compound 0.8 µM) | relative viability (QS11 + Vorinostat; first compound 2.53 µM) | relative viability (QS11 + Vorinostat; first compound 8 µM) | relative viability (QS11 + Olaparib; first compound 0.08 µM) | relative viability (QS11 + Olaparib; first compound 0.253 µM) | relative viability (QS11 + Olaparib; first compound 0.8 µM) | relative viability (QS11 + Olaparib; first compound 2.53 µM) | relative viability (QS11 + Olaparib; first compound 8 µM) | relative viability (AZ628 + Vorinostat; first compound 0.08 µM) | relative viability (AZ628 + Vorinostat; first compound 0.253 µM) | relative viability (AZ628 + Vorinostat; first compound 0.8 µM) | relative viability (AZ628 + Vorinostat; first compound 2.53 µM) | relative viability (AZ628 + Vorinostat; first compound 8 µM)
1 | BEN | 0.577 | 0.66 | 0.929 | 0.773 | 0.79 | 0.568 | 0.528 | 0.528 | 0.688 | 0.647 | 0.667 | 1.1 | 1.03 | 1.01 | 0.992 | 0.615 | 0.513 | 0.571 | 0.557 | 0.589
2 | ChaGo-K-1 | – | 0.862 | 1 | 0.941 | 1 | – | 0.799 | 0.935 | 0.767 | 0.745 | – | 0.448 | 0.352 | 0.397 | 0.387 | 0.773 | 0.75 | 0.753 | 0.754 | 0.743
3 | NCI-H2405 | 0.731 | 0.747 | 0.789 | 1.13 | 1.22 | 1.12 | 0.957 | 0.766 | 1.06 | 0.974 | 0.847 | 0.803 | 0.768 | 0.961 | 0.83 | 0.884 | 0.8 | 0.69 | 0.707 | 0.586
4 | NCI-H2087 | 1.28 | 1.4 | 1.08 | 1.3 | 1.3 | 1.03 | 0.667 | 0.599 | 0.625 | 0.665 | 0.743 | 0.743 | 0.553 | 0.623 | 0.644 | 1.02 | 0.723 | 0.743 | 0.527 | 0.148
5 | NCI-H460 | 0.703 | 0.644 | 0.493 | 0.638 | 0.889 | 0.938 | 0.811 | 0.541 | 0.687 | 0.212 | 0.422 | 0.435 | 0.36 | 0.416 | 0.277 | 0.728 | 0.715 | 0.644 | 0.641 | 0.24
6 | LCLC-103H | 0.861 | 0.775 | – | 0.772 | 0.881 | 0.724 | 0.783 | – | 0.799 | 0.734 | 0.799 | 0.849 | – | 0.791 | 0.814 | 0.727 | 0.804 | 0.776 | 0.712 | 0.728
7 | NCI-H441 | 1.02 | 1.39 | 0.963 | 0.964 | 0.942 | 0.855 | 0.857 | 0.658 | 0.53 | 0.717 | 0.511 | 0.54 | 0.518 | 0.364 | 0.463 | 0.782 | 0.749 | 0.67 | 0.673 | 0.68
